In US20250051758A1, “FolA Selection Assay to Identify Strains with Increased Soluble Target Protein Expression” (ABSCI CORPORATION, priority 2021, published 2025):

System: E. coli harboring plasmid encoding mCherry-FolA fusion under the control of pBAD promoter

Cc1cc(NS(=O)(=O)c2ccc(N)cc2)no1 [sulfamethoxazole]
Inhibition of growth by sulfamethoxazole: did not inhibit growth
Sulfamethoxazole concentration at which sensitivity to trimethoprim is restored: > 2 µg/mL

COc1cc(Cc2cnc(N)nc2N)cc(OC)c1OC [trimethoprim]
Resistance of cells to trimethoprim: highly resistant
Synergy of trimethoprim with sulfamethoxazole: strong synergy
